Literature values as cited in US20100297232A1, “ONDANSETRON FILM COMPOSITIONS” (MonoSol Rx, LLC, priority 2009, published 2010).
Where two headings read alike, the source gives them in different places.

- solubility (pH 1.2 and below): soluble
- solubility (pH 8): practically insoluble
Compound: Cc1nccn1CC1CCc2c(c3ccccc3n2C)C1=O (centres unmarked) [ondansetron base, ondansetron]
